Measurements from patent US20250381129A1, “ANTI-AGING SKIN CARE COMPOSITION” (L'OREAL, priority 2024, published 2025).

Key:
Conditions in all cases: topical, 5 consecutive days, HPR 0.01%, LA 3%, Eperuline 1% or 3%
[1] = test system: CSC-stimulated human ex-vivo skin; experiment: H&E histological analysis of CSC-stimulated human ex-vivo skin
Experimental: (§1) Human ex-vivo skin was cultured with or without CSC and topically treated with either HPR, HPR-LA, HPR-Eperuline and HPR-LA-Eperuline for 5 days consecutive days (See FIG. 2B; See Table 4 for concentrations).
Fresh human ex-vivo skin was obtained through donor informed consent following abdominoplasty procedures. The tissues were obtained through BioIVT (Westbury, NY, USA) following an approved IRB protocol and shipped to a BSC level 2 research laboratory within 24 h after the procedure where the experiments took place. All experiments were performed in accordance with relevant guidelines and regulations. Donors included a person, person and person. Ex vivo tissues were prepared by excising the subcutaneous fat followed by punch biopsies with disposable 12 mm Skin Biopsy Punch (Fisher Scientific, NC9253254) and placed in 24-well transwell plates with permeable polyester membrane inserts (Fisher Scientific, 07-200-161). At least three biopsies were used for each condition.
Skin tissues were divided into groups of three and placed in the 24-well transwell plates, […] (Cell stimulation cocktail 500×(50-930-5)) was diluted to a 2× concentration in culture media and 650 uL was added to the well on the first day. […]

IL-1A = experiment: Quantification of secreted IL-1A in culture supernatant of CSC-stimulated human ex-vivo skin (ProcartaPlex/Luminex)
Experimental: as §1
(§2) Skin tissues were divided into groups of three and placed in the 24-well transwell plates, […] (Cell stimulation cocktail 500×(50-930-5)) was diluted to a 2× concentration in culture media and 650 uL was added to the well on the first day. Topical treatments were undertaken daily by pipetting 5 uL of treatments onto the tissue and using a Q-tip, spreading treatments across the tissue and left to absorb at room temperature for 30 minutes. Base media without stimulants served as the control group. Tissues were replenished with fresh media with the stimulant on day 1 and 3. On days 1, 3 and 5, supernatant from the culture was collected and aliquoted, and the tissues were bisected and fixed in 10% neutral buffered formalin (Fisher Scientific 22-126-347) for 3 h and then switched to 70% ethanol for storage until histology.
(§3) Tissue culture supernatant was collected at the end of the cultures to evaluate the secretion of several cytokines, chemokines, and growth factors. […]
(§4) Data were assessed using a two-way ANOVA with multiple comparison test. […]

IL-23 = experiment: Quantification of secreted IL-23 in culture supernatant of CSC-stimulated human ex-vivo skin (ProcartaPlex/Luminex)
Experimental: as §1, §2, §3, §4

`CC1=C(/C=C/C(C)=C/C=C/C(C)=C/C(=O)OCC(=O)C(C)(C)C)C(C)(C)CCC1` [HPR, hydroxypinacolone retinoate] was tested, and the “histological signs of inflammation (epidermal spongiosis, immune infiltration)” value [1] was “exacerbated”, the “secreted IL-1A” value (IL-1A) was “significant increase” and the “secreted IL-23” value (IL-23) was “significant increase”.
